Experiments:
[1] = test system: MRSA, CA-MRSA and MSSA of Staphylococcus aureus; test: MIC measurement, Test Example 4 (MRSA, CA-MRSA and MSSA strains); assay type: cell-based; settings: Staphylococcus aureus
Method: (§1) Each of the bacterial strains listed in Table 1-1 was shake-cultured at 37° C. overnight in 4 mL of a medium (Tryptical Soy Broth: TSB, product of Becton Dickinson and Company). FDA209P was used as a control.
(§2) After completion of culturing, the resultant culture was suspended in a cation-adjusted Mueller Hinton Broth (CAMHB, product of Becton Dickinson and Company). Then, the obtained bacterial culture was adjusted in absorbance with the CAMHB so that the absorbance at 578 nm of the bacterial culture was adjusted to 0.3 measured by an absorption spectrometer. In addition, the resultant bacterial culture was 500-fold diluted with the CAMHB.
(§3) Each of the 500-fold diluted, pre-cultured bacterial cultures was added at 50 μL/well to the CAMHB containing the quinolones and the nybomycins at various concentrations (50 μL/well), followed by statically culturing at 37° C. overnight.
(§4) After completion of culturing, the growth of the bacteria was visually determined based on turbidity to measure MIC in each bacterial strain.
Glycopeptides, imipenem, quinolones and nybomycins were studied for antibacterial activity against the bacterial strains listed in Table 2-1; i.e., MRSA, CA-MRSA and MSSA of Staphylococcus aureus.

[2] = test system: VISA clinical isolates of MRSA (VI-MRSA) and of MSSA (VI-MSSA); test: microbe, parasite or virus in culture; assay type: cell-based, Staphylococcus aureus
Method: as §1, §2, §3, §4
Here, the glycopeptides used were VCM and TEIC. The β-lactam used was OXA.

[3] = ATCC 29213 / MRSA / MSSA, ATCC 29213, MSSA
[4] = FDA209P / MRSA / MSSA, FDA209P, MSSA
[5] = MRSA / MSSA / NCTC 8325, NCTC 8325, MSSA
[6] = MRSA / MSSA / USA300, USA300 FPR3757, CA-MRSA
[7] = Staphylococcus aureus, 99/3700-W, VI-MRSA, The United Kingdom
[8] = Staphylococcus aureus, 99/3759-V, VI-MRSA, The United Kingdom
[9] = Staphylococcus aureus, 28160, VI-MRSA, South African Republic
[10] = Staphylococcus aureus, 98141, VI-MRSA, France
[11] = Staphylococcus aureus, A7 (JCSC4842), VI-MRSA, Taiwan
[12] = Staphylococcus aureus, AMC11094, VI-MRSA, Korea
[13] = Staphylococcus aureus, B7 (JCSC4852), VI-MRSA, Taiwan
[14] = Staphylococcus aureus, BR1, VI-MRSA, Brazil
[15] = Staphylococcus aureus, BR2, VI-MRSA, Brazil
[16] = Staphylococcus aureus, BR3, VI-MRSA, Brazil
[17] = Staphylococcus aureus, BR4, VI-MRSA, Brazil
[18] = Staphylococcus aureus, BR5, VI-MRSA, Brazil
[19] = Staphylococcus aureus, HIP06297, VI-MRSA, America
[20] = Staphylococcus aureus, HIP06854, VI-MRSA, America
[21] = Staphylococcus aureus, HIP07920, VI-MRSA, America
[22] = Staphylococcus aureus, HIP07930, VI-MRSA, America
[23] = Staphylococcus aureus, HIP08926, VI-MRSA, America
[24] = Staphylococcus aureus, HIP09143, VI-MRSA, America
[25] = Staphylococcus aureus, HIP09313, VI-MRSA, America
[26] = Staphylococcus aureus, HIP09433, VI-MRSA, America
[27] = Staphylococcus aureus, HIP09662, VI-MRSA, America
[28] = Staphylococcus aureus, HIP09735, VI-MRSA, America
[29] = Staphylococcus aureus, HIP09737, VI-MSSA, America
[30] = Staphylococcus aureus, HIP09740, VI-MRSA, America
[31] = Staphylococcus aureus, HIP10267, VI-MRSA, America
[32] = Staphylococcus aureus, HIP10540, VI-MRSA, America
[33] = Staphylococcus aureus, HIP12864, VI-MRSA, America
[34] = Staphylococcus aureus, HIP13036, VI-MRSA, America
[35] = Staphylococcus aureus, HIP13057, VI-MRSA, America
[36] = Staphylococcus aureus, IL (HIP7737), VI-MRSA, America
[37] = Staphylococcus aureus, JCSC7193, VI-MRSA, Thailand
[38] = Staphylococcus aureus, JCSC7195, VI-MRSA, Thailand
[39] = Staphylococcus aureus, JCSC7203, VI-MRSA, Thailand
[40] = Staphylococcus aureus, LIM2, VI-MRSA, France
[41] = Staphylococcus aureus, LY-1999-01, VI-MSSA, Oman
[42] = Staphylococcus aureus, LY-1999-03, VI-MRSA, Oman
[43] = Staphylococcus aureus, MI (HIP5827), VI-MRSA, America
[44] = Staphylococcus aureus, MRSA / MSSA / NRS 76 / VISA, NRS76, VI-MSSA, America
[45] = Staphylococcus aureus, MRSA / MSSA / NRS 79 / VISA, NRS79, VI-MRSA, America
[46] = Staphylococcus aureus, MRSA / MSSA / NRS 118 / VISA, NRS118, VI-MRSA, America
[47] = Staphylococcus aureus, MRSA / MSSA / NRS 126 / VISA, NRS126, VI-MRSA, America
[48] = Staphylococcus aureus, Mu3, VI-MRSA, Japan
[49] = Staphylococcus aureus, Mu50, VI-MRSA, Japan
[50] = Staphylococcus aureus, NJ (HIP5836), VI-MRSA, America
[51] = Staphylococcus aureus, P1V44, VI-MSSA, Belgium
[52] = Staphylococcus aureus, PC, VI-MRSA, America
[53] = Staphylococcus aureus, SA MER-S6, VI-MSSA, France
[54] = Staphylococcus aureus, SA MER-S12, VI-MSSA, France
[55] = Staphylococcus aureus, SA MER-S20, VI-MSSA, France

Measured: MIC

CN[C@H](CC(C)C)C(=O)N[C@H]1C(=O)N[C@@H](CC(N)=O)C(=O)N[C@H]2C(=O)N[C@H]3C(=O)N[C@H](C(=O)N[C@H](C(=O)O)c4cc(O)cc(O)c4-c4cc3ccc4O)[C@H](O)c3ccc(c(Cl)c3)Oc3cc2cc(c3O[C@@H]2O[C@H](CO)[C@@H](O)[C@H](O)[C@H]2O[C@H]2C[C@](C)(N)[C@H](O)[C@H](C)O2)Oc2ccc(cc2Cl)[C@H]1O [VCM, vancomycin]
1 µg/mL: [1]; ISA35-1, MRSA | [1]; ISA37-1, MSSA | [1]; ISA49-1, MSSA | [1]; ISA51-1, MSSA | [1]; ISA58-1, MRSA | [1]; ISA62-1, MRSA | [1]; ISA73-1, MSSA | [1]; KBSA34, MRSA | [1]; KBSA72, MRSA | [1]; KBSA96, MRSA | [1]; KBSA171, MRSA | [1]; KSA24, MRSA | [1]; KSA31, MRSA | [1]; KSA36, MRSA | [1]; [5] | [1]; [6] | [2]; [30] | [2]; [38]
3 µg/mL: [2]; [11]
0.5 µg/mL: [1]; [3] | [1]; COL, MRSA | [1]; [4] | [1]; ISA12-1, MRSA | [1]; ISA12-2, MRSA | [1]; KBSA32, MRSA | [1]; MW2, CA-MRSA | [1]; N315, MRSA | [2]; [48]
4 µg/mL: [2]; [9] | [2]; [12] | [2]; [13] | [2]; [15] | [2]; [19] | [2]; [20] | [2]; [22] | [2]; [23] | [2]; [24] | [2]; [25] | [2]; [27] | [2]; [28] | [2]; [29] | [2]; [31] | [2]; [32] | [2]; [33] | [2]; [35] | [2]; [36] | [2]; [37] | [2]; [41] | [2]; [42] | [2]; [47] | [2]; [53] | [2]; [54] | [2]; [55]
2 µg/mL: [1]; ISA56-3, MRSA | [2]; [7] | [2]; [8] | [2]; [10] | [2]; [14] | [2]; [21] | [2]; [26] | [2]; [39] | [2]; [40] | [2]; [44] | [2]; [45] | [2]; [51]
8 µg/mL: [2]; [16] | [2]; [17] | [2]; [18] | [2]; [34] | [2]; [43] | [2]; [46] | [2]; [49] | [2]; [50] | [2]; [52]

Cc1onc(-c2ccccc2)c1C(=O)N[C@@H]1C(=O)N2[C@@H]1SC(C)(C)[C@@H]2C(=O)O [OXA, oxacillin]
0.25 µg/mL: [1]; [3]
1 µg/mL: [1]; ISA49-1, MSSA | [1]; ISA51-1, MSSA | [1]; ISA73-1, MSSA | [1]; [5] | [2]; [29] | [2]; [41] | [2]; [44] | [2]; [53] | [2]; [54] | [2]; [55]
32 µg/mL: [1]; N315, MRSA | [2]; [9] | [2]; [22] | [2]; [34] | [2]; [40]
> 16 µg/mL: [1]; COL, MRSA
16 µg/mL: [1]; KBSA34, MRSA | [1]; [6]
8 µg/mL: [1]; ISA56-3, MRSA | [1]; ISA62-1, MRSA | [1]; KBSA32, MRSA | [1]; MW2, CA-MRSA
128 µg/mL: [1]; KBSA72, MRSA | [1]; KBSA96, MRSA | [1]; KSA24, MRSA | [1]; KSA31, MRSA | [2]; [11] | [2]; [13] | [2]; [20] | [2]; [21] | [2]; [39]
> 128 µg/mL: [1]; KBSA171, MRSA | [1]; KSA36, MRSA | [2]; [10] | [2]; [37] | [2]; [38]
≤ 0.063 µg/mL: [1]; [4]
512 µg/mL: [2]; [7] | [2]; [8] | [2]; [12] | [2]; [17] | [2]; [18] | [2]; [19] | [2]; [23] | [2]; [24] | [2]; [25] | [2]; [27] | [2]; [28] | [2]; [30] | [2]; [43] | [2]; [48] | [2]; [49]
4 µg/mL: [1]; ISA12-1, MRSA | [1]; ISA12-2, MRSA | [1]; ISA35-1, MRSA | [1]; ISA58-1, MRSA | [2]; [31] | [2]; [35] | [2]; [52]
256 µg/mL: [2]; [14] | [2]; [26] | [2]; [45] | [2]; [47]
2 µg/mL: [1]; ISA37-1, MSSA | [2]; [51]
1020 µg/mL: [2]; [33] | [2]; [42] | [2]; [46]
64 µg/mL: [2]; [15] | [2]; [16] | [2]; [32] | [2]; [36] | [2]; [50]
